Activity calls are given as the source filed them.
Legend:
[1] = biological target: T1, Runt-related transcription factor 1/Core-binding factor subunit beta (Homo sapiens, UniProt Q01196+Q13951); assay: disruptors of Runt domain/CBFb-SMMHC interaction – biochemical, FRET, Cerulean-Runt, Venus-CBFb-SMMHC, uHTS, […] (AID 1434); assay type: protein assay
NS3 = NS3 (Hepatitis C virus, UniProt A3EZJ3); assay: PubChem AID 2173; parameters: species or system Hepacivirus hominis
[2] = biological target: T1, Runt-related transcription factor 1/Core-binding factor subunit beta; assay: Runt domain/CBFb-SMMHC interaction disruptors – biochemical, TR-FRET (AID 1438); assay type: protein assay
Cysteine protease ATG4B = biological target: T2, Cysteine protease ATG4B (Homo sapiens, UniProt Q9Y4P1); assay type: functional;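 note: Fluorescence-based dose-response confirmation assay measuring inhibition of ATG4B activity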
T2 sequence (Q9Y4P1 whole entry): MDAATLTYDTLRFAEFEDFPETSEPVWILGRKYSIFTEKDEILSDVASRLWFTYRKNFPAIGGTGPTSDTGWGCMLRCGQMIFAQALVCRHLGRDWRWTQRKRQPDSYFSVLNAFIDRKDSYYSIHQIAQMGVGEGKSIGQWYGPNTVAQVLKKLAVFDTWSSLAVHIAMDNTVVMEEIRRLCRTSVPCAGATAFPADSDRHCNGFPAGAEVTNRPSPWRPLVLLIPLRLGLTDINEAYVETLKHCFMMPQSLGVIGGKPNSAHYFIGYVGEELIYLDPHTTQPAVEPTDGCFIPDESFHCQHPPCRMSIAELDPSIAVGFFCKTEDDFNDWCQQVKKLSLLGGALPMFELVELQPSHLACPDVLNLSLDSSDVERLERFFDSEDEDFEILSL

Phospholipase A2 = Phospholipase A2 (Homo sapiens, UniProt P04054); assay type: functional;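 note: confirmatory dose-response counterscreen on phospholipase A2, testing hits that came from an ultra-high-throughput screen for ATG4B inhibitors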
[3] = viability loss in THP-1 monocytes – THP-1 cells, cytotoxicity control for Vif-APOBEC3G degradation inhibitor project, dose response (AID 1117359); assay type: functional; settings: THP-1
[4] = A Cell Based Secondary Assay To Explore Cytotoxicity of Compounds that Sensitize Mycobacterium Tuberculosis to Beta-Lactam Antibiotics.; assay type: functional
[5] = biological target: T3, Calpain-2 catalytic subunit (Sus scrofa, UniProt P43367); assay: m-calpain protease blockers, concentration series – biochemical, fluorogenic peptide substrate, dose response (AID 1420); assay type: functional
T3 sequence (P43367 whole entry): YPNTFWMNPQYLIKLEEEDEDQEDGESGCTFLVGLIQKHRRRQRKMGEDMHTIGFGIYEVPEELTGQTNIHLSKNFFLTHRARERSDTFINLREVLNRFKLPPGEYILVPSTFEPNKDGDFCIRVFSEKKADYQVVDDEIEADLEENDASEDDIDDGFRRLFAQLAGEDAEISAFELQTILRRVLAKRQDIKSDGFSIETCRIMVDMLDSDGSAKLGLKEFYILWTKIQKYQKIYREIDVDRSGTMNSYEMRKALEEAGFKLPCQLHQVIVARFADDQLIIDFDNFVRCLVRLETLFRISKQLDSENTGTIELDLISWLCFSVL

Saccharomyces cerevisiae = assay: S. cerevisiae Caspase-1/ASC signal blockers IC50, NALP1 inhibitor project selectivity test (AID 488863); assay type: functional, organism-based
[6] = biological target: NACHT, LRR and PYD domains-containing protein 1 (Homo sapiens, UniProt Q9C000); assay: NALP1 inhibitors in yeast, dose response, luminescent (AID 488860); assay type: functional
Coagulation factor XII = Coagulation factor XII (Homo sapiens, UniProt P00748); assay type: functional;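 note: activated factor XIIa alpha cleaving a fluorogenic AMC peptide substrate; inhibitor potency from loss of enzyme activity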
Tumor necrosis factor = Tumor necrosis factor (Homo sapiens, UniProt P01375); assay: analog potency on TNFa NF-kB signaling – cell-based, revised, SAR follow-up (AID 2337); assay type: functional
[7] = biological target: T4, Nucleotide-binding oligomerization domain-containing protein 1 (Homo sapiens, UniProt Q9Y239); assay: blockers of NOD1 pathway activity – revised, SAR follow-up (AID 2333); assay type: functional
T4 sequence (Q9Y239 whole entry): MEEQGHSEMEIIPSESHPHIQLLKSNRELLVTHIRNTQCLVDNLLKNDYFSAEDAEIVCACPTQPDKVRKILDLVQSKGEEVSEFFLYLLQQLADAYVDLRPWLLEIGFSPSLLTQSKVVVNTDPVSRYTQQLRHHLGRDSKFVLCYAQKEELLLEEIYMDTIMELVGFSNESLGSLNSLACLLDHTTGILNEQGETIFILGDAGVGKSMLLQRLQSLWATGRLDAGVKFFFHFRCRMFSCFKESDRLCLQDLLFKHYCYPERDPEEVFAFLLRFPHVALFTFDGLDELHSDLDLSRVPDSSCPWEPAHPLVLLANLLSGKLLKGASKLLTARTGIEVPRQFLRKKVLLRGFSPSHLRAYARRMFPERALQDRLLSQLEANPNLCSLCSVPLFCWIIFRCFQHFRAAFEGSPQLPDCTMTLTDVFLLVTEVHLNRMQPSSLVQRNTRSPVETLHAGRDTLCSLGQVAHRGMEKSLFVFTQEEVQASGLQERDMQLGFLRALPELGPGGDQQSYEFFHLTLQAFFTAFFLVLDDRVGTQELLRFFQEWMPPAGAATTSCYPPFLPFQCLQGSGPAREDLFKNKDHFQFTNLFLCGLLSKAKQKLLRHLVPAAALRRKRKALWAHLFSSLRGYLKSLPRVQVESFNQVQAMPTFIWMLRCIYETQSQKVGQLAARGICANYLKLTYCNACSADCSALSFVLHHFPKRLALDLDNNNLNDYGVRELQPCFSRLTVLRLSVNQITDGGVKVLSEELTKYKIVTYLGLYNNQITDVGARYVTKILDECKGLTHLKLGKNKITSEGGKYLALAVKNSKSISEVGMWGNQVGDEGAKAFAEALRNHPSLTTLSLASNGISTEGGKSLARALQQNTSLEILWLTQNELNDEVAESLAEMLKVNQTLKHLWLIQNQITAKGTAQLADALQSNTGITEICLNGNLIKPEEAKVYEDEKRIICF

HEK293 = assay: cells; settings: Homo sapiens;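 note: cells exposed to compound for 14 hours overnight before viability readout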
[8] = biological target: Phosphoethanolamine/phosphocholine phosphatase (Homo sapiens, UniProt Q8TCT1); assay: SAR assay for compounds that inhibit PHOSPHO1. [Related pubchem assays (depositor defined):AID1545, AID1565, AID1574]
Phosphoethanolamine/phosphocholine phosphatase, sequence (Q8TCT1 whole entry): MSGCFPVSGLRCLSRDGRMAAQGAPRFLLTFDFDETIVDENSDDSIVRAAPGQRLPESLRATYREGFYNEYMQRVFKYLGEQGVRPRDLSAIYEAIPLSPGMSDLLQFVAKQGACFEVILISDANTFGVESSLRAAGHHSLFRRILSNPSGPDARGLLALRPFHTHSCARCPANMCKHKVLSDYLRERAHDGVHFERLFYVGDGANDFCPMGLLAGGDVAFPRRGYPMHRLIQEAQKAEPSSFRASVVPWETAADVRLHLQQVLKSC

T1 sequence (Q01196 whole entry, the tested form may be a part): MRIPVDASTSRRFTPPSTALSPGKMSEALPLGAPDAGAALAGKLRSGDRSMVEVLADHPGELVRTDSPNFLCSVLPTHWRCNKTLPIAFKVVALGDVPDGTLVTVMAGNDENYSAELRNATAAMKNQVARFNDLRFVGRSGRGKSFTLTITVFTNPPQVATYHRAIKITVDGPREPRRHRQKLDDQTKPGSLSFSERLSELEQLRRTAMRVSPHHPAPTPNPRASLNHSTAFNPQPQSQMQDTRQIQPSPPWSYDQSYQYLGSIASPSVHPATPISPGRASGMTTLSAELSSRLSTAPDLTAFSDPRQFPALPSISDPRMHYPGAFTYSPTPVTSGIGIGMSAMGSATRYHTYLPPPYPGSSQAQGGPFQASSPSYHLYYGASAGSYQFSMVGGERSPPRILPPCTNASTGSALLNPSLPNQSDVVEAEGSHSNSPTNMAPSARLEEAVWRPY
T1 sequence (Q13951 whole entry, the tested form may be a part): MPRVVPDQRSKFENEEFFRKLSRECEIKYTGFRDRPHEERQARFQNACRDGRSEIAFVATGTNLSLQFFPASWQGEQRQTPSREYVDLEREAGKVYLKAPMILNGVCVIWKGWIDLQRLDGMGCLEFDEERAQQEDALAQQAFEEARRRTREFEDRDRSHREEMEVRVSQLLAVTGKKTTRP
Coagulation factor XII, sequence (P00748 20-372 limits assumed): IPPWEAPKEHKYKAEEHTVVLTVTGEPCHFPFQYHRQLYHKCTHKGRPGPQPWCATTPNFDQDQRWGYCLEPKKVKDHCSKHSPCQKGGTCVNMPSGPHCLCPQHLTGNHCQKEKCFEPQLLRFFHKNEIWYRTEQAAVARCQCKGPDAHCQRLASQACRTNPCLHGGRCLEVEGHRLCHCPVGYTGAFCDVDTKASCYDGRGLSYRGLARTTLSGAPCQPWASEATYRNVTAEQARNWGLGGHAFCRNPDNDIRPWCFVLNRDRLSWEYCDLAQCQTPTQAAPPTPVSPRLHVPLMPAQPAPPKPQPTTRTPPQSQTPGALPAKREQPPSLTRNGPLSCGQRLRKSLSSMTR
Coagulation factor XII, sequence (P00748 373-615 limits assumed): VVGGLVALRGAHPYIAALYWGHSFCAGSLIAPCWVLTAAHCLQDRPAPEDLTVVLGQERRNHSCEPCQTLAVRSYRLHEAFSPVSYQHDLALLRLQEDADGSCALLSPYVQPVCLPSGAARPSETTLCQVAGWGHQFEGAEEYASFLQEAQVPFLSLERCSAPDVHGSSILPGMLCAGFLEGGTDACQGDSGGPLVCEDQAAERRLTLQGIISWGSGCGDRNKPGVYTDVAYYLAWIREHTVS
NS3, sequence (A3EZJ3 whole entry, the tested form may be a part): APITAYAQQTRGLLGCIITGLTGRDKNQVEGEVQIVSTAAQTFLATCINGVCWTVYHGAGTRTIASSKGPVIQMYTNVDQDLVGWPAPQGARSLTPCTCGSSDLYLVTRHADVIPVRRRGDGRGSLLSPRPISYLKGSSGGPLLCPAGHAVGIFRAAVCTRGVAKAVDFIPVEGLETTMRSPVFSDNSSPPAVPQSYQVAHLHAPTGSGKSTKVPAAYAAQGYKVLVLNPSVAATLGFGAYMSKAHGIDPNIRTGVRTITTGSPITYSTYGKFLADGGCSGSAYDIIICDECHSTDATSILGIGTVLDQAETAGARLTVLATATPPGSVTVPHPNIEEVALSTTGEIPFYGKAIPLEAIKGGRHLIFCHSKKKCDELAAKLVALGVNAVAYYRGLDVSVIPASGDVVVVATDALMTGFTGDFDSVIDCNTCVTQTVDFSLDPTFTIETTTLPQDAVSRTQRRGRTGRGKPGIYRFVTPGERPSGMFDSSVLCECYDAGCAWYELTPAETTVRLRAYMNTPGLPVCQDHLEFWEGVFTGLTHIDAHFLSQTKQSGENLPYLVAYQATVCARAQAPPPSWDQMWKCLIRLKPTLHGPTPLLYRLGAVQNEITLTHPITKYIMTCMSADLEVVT
NACHT, LRR and PYD domains-containing protein 1, sequence (Q9C000 1-1212 limits assumed): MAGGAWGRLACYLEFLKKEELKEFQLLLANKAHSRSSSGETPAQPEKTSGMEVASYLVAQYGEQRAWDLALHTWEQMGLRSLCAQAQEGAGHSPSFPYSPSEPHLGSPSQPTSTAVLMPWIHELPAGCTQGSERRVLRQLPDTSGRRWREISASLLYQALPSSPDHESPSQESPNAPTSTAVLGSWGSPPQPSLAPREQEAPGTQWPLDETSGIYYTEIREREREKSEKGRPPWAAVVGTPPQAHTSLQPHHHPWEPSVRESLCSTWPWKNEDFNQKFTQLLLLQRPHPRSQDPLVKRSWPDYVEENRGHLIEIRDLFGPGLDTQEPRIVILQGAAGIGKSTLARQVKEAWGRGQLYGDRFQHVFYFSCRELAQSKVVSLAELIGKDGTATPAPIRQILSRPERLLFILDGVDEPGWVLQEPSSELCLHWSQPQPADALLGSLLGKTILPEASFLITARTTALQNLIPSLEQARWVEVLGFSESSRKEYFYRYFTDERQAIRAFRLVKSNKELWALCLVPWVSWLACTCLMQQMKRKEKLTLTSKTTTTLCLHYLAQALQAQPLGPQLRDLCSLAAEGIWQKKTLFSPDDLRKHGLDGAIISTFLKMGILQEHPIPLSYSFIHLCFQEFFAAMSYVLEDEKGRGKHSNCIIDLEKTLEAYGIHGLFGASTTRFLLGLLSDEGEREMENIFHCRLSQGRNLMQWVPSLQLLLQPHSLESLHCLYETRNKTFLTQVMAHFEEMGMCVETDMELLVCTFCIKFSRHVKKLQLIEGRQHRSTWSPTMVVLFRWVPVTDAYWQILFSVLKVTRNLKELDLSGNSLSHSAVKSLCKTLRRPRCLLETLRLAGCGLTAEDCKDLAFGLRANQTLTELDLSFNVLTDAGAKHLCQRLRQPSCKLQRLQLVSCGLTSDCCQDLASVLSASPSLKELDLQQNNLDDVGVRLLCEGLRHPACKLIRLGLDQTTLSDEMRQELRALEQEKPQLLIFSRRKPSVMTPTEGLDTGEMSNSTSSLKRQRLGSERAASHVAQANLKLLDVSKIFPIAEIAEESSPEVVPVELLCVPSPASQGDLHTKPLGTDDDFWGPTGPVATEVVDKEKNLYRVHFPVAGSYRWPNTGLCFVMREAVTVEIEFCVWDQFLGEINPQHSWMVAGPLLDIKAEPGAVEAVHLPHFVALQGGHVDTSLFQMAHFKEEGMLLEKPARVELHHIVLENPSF
NACHT, LRR and PYD domains-containing protein 1, sequence (Q9C000 1213-1473 limits assumed): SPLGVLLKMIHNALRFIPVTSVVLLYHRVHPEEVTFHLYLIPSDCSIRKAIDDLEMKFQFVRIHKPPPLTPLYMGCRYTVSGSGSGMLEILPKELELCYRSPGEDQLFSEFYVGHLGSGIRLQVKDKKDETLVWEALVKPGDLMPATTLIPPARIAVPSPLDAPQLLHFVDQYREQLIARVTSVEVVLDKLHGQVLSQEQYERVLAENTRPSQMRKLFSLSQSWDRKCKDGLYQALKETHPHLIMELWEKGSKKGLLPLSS
Tumor necrosis factor, sequence (P01375 whole entry, the tested form may be a part): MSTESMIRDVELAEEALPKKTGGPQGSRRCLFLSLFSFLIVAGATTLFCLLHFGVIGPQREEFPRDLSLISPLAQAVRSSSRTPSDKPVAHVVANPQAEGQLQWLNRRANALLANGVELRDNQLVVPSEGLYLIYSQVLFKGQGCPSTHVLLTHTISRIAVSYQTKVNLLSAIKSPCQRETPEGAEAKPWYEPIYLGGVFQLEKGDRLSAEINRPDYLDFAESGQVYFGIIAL
Phospholipase A2, sequence (P04054 whole entry): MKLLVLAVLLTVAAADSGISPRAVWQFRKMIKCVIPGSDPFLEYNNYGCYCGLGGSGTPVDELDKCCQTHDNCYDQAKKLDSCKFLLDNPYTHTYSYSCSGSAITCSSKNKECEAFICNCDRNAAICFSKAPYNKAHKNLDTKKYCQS

With `CC1CCCCC1NC(=O)COC(=O)c1c2c(nc3ccccc13)/C(=C/c1ccco1)CC2` (centres undefined) as the compound, how does the IC50 [1] read?
The IC50 was > 100 µM (inactive).

What about the IC50 (NS3) of the same compound?
Its IC50 is 11.1 µM (not active).

What about the IC50 [2] of the same compound?
The IC50 was 10.6 µM (active).

And the IC50 (Cysteine protease ATG4B)?
The IC50 was 14.4 µM (active).

What about the IC50 (Phospholipase A2) of the same compound?
The IC50 was 8.31 µM (active).

And the CC50 [3]?
Its CC50 is > 40 µM (active).

With `COc1ccc(C(=O)Nc2oc(-c3ccccc3)c(-c3ccccc3)c2C#N)cc1OC` as the compound, how does the CC50 [4] read?
Its CC50 is > 40 µM (active).

For `CCOCCCn1c(=N)c(C(N)=S)cc2c(=O)n3cccc(C)c3nc21`, which IC50 [1] is on record?
The IC50 was 0.257 µM (active).

What about the IC50 [2] of the same compound?
The IC50 was 68.8 µM (inactive).

With `O=[N+]([O-])c1cc(C(F)(F)F)ccc1NCCc1c[nH]c2ccc(O)cc12` as the compound, how does the CC50 [4] read?
The CC50 was > 40 µM (active).

What about the IC50 [5] of the same compound?
The IC50 was 7.48 µM (not active).

Which IC50 (Saccharomyces cerevisiae) does the source give for `C=C(C)C(=O)Nc1nnc(-c2cccs2)s1` here?
Its IC50 is 15 µM (active).

What about the IC50 [6] of the same compound?
The IC50 was 11 µM (active).

Which IC50 (Coagulation factor XII) does the source give for `O=C(Nc1ncnc2sc3c(c12)CCCCC3)c1ccc(F)cc1` here?
The IC50 was > 50 µM (inactive).

What does the source list for `COC(=O)c1c(NC(=O)c2ccc(Cl)cc2)sc2c1CCCC2`?
IC50 (Tumor necrosis factor): > 20 µM (inactive); IC50 [7]: > 20 µM (inactive); IC50 (HEK293): > 20 µM (inactive)

With `c1ccc(Nc2nc(-c3ccccc3)[n+](-c3ccccc3)s2)cc1` as the compound, how does the IC50 [8] read?
Its IC50 is 4.99 µM (inactive).

With `CN(C)c1ccc(C(=S)N2CCOCC2)cc1` [(4-(DIMETHYLAMINO)PHENYL)(MORPHOLINO)METHANETHIONE] as the compound, how does the IC50 (Coagulation factor XII) read?
Its IC50 is > 50 µM (inactive).

Reference: ChEMBL document CHEMBL1201862, “PubChem BioAssay data set” (2004)
